From US20260007758A1, “SO[…]-2 RECEPTOR (SST2R) NON-PEPTIDE DRUG CONJUGATES AND USES THEREOF” (Crinetics Pharmaceuticals, Inc., priority 2024, published 2026)

Tests used:
Type in all cases: cell-based
SST2 = molecular target: T1, SST2 (Homo sapiens, UniProt P30874); assay: PathHunter CHO-K1 SST2 Internalization Assay; settings: PathHunter CHO-K1 SST2 cells; 90 min at 37 C; luminescence; read-out: Internalization EC50
T1 construct: host or cells: PathHunter CHO-K1 SST2 cells
How it was run: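 CHO-K1 cells expressing human SST2, 2500 cells/well, grown 48 h, then exposed 90 min at 37 C to 11-point 1:3 NDC dilutions (final top 10 uM). Beta-Glo luminescence after 60 min at room temperature; four-parameter IC50, duplicate mean, background-corrected.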

[1] = tested on: NCI-H524 human small cell lung cancer cells; assay: H524 assay: inhibition of cell proliferation (CellTiter Glo); settings: 2 h treatment, washout, additional 70 h incubation
How it was run: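 NCI-H524 cells were exposed for 2 h to NDC in an 11-point two-fold series starting at 1 uM. The drug was then washed out and cells grew a further 70 h. CellTiter Glo luminescence gave % inhibition versus untreated control, and IC50 came from a four-parameter nonlinear regression.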

[2] = molecular target: T2, human somatostatin receptor subtype 2 (Homo sapiens, UniProt P30874); assay: Functional assay for SSTR2 agonists (HTRF cAMP); settings: CHO-K1 cells stably expressing human SST2; NKH477-stimulated cAMP; 20 min at 37 C; read-out: hSST2 cAMP Avg EC50
T2 construct: expressed in transfected cells
How it was run: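 CHO-K1 cells stably expressing human SSTR2 treated with compound (typically 0-10,000 nM final) for 20 min at 37 °C. Lysate cAMP measured by HTRF (665/620 nm ratio), converted via standard curve; EC50 from cAMP vs concentration.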

T2 sequence (P30874 whole entry): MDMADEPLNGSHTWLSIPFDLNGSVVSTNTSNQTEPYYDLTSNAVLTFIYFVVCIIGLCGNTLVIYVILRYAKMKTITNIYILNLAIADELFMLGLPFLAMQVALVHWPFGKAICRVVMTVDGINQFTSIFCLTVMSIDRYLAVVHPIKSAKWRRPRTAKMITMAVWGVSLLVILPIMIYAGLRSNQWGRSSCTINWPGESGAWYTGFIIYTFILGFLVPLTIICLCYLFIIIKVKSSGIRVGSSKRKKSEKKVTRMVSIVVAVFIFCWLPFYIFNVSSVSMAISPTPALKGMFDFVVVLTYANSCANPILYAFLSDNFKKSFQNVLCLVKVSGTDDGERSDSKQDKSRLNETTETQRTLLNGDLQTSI
T1 sequence (P30874 whole entry): as above

SMILES	EC50 (SST2)	EC50 [1]	EC50 [2]
CC[C@H](C)[C@@H]([C@@H](CC(=O)N1CCC[C@H]1[C@H](OC)[C@@H](C)C(=O)N[C@H](C)[C@@H](O)c1ccccc1)OC)N(C)C(=O)[C@@H](NC(=O)[C@H](C(C)C)N(C)C(=O)OCc1ccc(NC(=O)[C@H](CCCNC(N)=O)NC(=O)[C@@H](NC(=O)C[C@@H](N)C(=O)NCCOCCC(=O)NCCNc2ncc(-c3cc(C)cc(F)c3)c(N3CCC(N)CC3)c2-c2nc3ccc(Cl)cc3[nH]2)C(C)C)c(O[C@@H]2O[C@H](C(=O)N[C@@H](CCCCNC(=O)CCCCc3ccc(I)cc3)C(=O)O)[C@@H](O)[C@H](O)[C@H]2O)c1)C(C)C [Compound 211]	3.2 nM	89 nM	0.19 nM
CC[C@H](C)[C@@H]([C@@H](CC(=O)N1CCC[C@H]1[C@H](OC)[C@@H](C)C(=O)N[C@H](C)[C@@H](O)c1ccccc1)OC)N(C)C(=O)[C@@H](NC(=O)[C@H](C(C)C)N(C)C(=O)OCc1ccc(NC(=O)[C@H](CCCNC(N)=O)NC(=O)[C@@H](NC(=O)[C@H](Cc2c[nH]cn2)NC(=O)CCOCCC(=O)NCCNc2ncc(-c3cc(C)cc(F)c3)c(N3CCC(N)CC3)c2-c2nc3ccc(Cl)cc3[nH]2)C(C)C)c(O[C@@H]2C[C@H](C(=O)NCC(=O)O)[C@@H](O)[C@H](O)[C@H]2O)c1)C(C)C [Compound 212]	4.5 nM	20 nM	0.088 nM
CC[C@H](C)[C@@H]([C@@H](CC(=O)N1CCC[C@H]1[C@H](OC)[C@@H](C)C(=O)N[C@H](C)[C@@H](O)c1ccccc1)OC)N(C)C(=O)[C@@H](NC(=O)[C@H](C(C)C)N(C)C(=O)OCc1ccc(NC(=O)[C@H](CCCNC(N)=O)NC(=O)[C@@H](NC(=O)[C@H](CCCO)NC(=O)CCOCCC(=O)NCCNc2ncc(-c3cc(C)cc(F)c3)c(N3CCC(N)CC3)c2-c2nc3cc(Cl)ccc3[nH]2)C(C)C)c(O[C@@H]2O[C@H](C(=O)NCC(=O)O)[C@@H](O)[C@H](O)[C@H]2O)c1)C(C)C [Compound 213]	3.4 nM	9.2 nM	0.089 nM
CC[C@H](C)[C@@H]([C@@H](CC(=O)N1CCC[C@H]1[C@H](OC)[C@@H](C)C(=O)N[C@H](C)[C@@H](O)c1ccccc1)OC)N(C)C(=O)[C@@H](NC(=O)[C@H](C(C)C)N(C)C(=O)OCc1ccc(NC(=O)[C@H](CCCNC(N)=O)NC(=O)[C@@H](NS(=O)(=O)C[C@H](C)NC(=O)CCOCCC(=O)NCCNc2ncc(-c3cc(C)cc(F)c3)c(N3CCC(N)CC3)c2-c2nc3ccc(Cl)cc3[nH]2)C(C)C)c(O[C@@H]2O[C@H](C(=O)NCC(=O)O)[C@@H](O)[C@H](O)[C@H]2O)c1)C(C)C [Compound 214]	4 nM	8.9 nM	0.11 nM
CC[C@H](C)[C@@H]([C@@H](CC(=O)N1CCC[C@H]1[C@H](OC)[C@@H](C)C(=O)N[C@H](C)[C@@H](O)c1ccccc1)OC)N(C)C(=O)[C@@H](NC(=O)[C@H](C(C)C)N(C)C(=O)OCc1ccc(NC(=O)[C@H](CCCNC(N)=O)NC(=O)[C@@H](NC(=O)CCOCCC(=O)N(C)CC(=O)NCCNc2ncc(-c3cc(C)cc(F)c3)c(N3CCC(N)CC3)c2-c2nc3ccc(Cl)cc3[nH]2)C(C)C)c(O[C@@H]2O[C@H](C(=O)NCCN(C)C)[C@@H](O)[C@H](O)[C@H]2O)c1)C(C)C [Compound 215]	7.8 nM	5 nM	0.14 nM
CC[C@H](C)[C@@H]([C@@H](CC(=O)N1CCC[C@H]1[C@H](OC)[C@@H](C)C(=O)N[C@H](C)[C@@H](O)c1ccccc1)OC)N(C)C(=O)[C@@H](NC(=O)[C@H](C(C)C)N(C)C(=O)OCc1ccc(NC(=O)[C@H](CCCNC(N)=O)NC(=O)[C@@H](NC(=O)CCOCCC(=O)NCCNc2ncc(-c3cc(C)cc(F)c3)c(N3CCC(N)CC3)c2-c2nc3ccc(Cl)cc3[nH]2)C(C)C)c(O[C@@H]2O[C@H](C(=O)N(C)CC(=O)O)[C@@H](O)[C@H](O)[C@H]2O)c1)C(C)C [Compound 216]	3 nM	8.6 nM	0.076 nM
CC[C@H](C)[C@@H]([C@@H](CC(=O)N1CCC[C@H]1[C@H](OC)[C@@H](C)C(=O)N[C@H](C)[C@@H](O)c1ccccc1)OC)N(C)C(=O)[C@@H](NC(=O)[C@H](C(C)C)N(C)C(=O)OCc1ccc(NC(=O)[C@H](CCCNC(N)=O)NC(=O)[C@@H](NC(=O)CCOCCC(=O)NCCNc2ncc(-c3cc(C)cc(F)c3)c(N3CCC(N)CC3)c2-c2nc3ccc(Cl)cc3[nH]2)C(C)C)c(O[C@@H]2O[C@H](C(=O)N(C)C)[C@@H](O)[C@H](O)[C@H]2O)c1)C(C)C [Compound 217]	6 nM	6.9 nM	0.093 nM
CC[C@H](C)[C@@H]([C@@H](CC(=O)N1CCC[C@H]1[C@H](OC)[C@@H](C)C(=O)N[C@H](C)[C@@H](O)c1ccccc1)OC)N(C)C(=O)[C@@H](NC(=O)[C@H](C(C)C)N(C)C(=O)OCc1ccc(NC(=O)[C@H](CCCNC(N)=O)NC(=O)[C@@H](NC(=O)CCOCCC(=O)NCCNc2ncc(-c3cc(C)cc(F)c3)c(N3CCC(N)CC3)c2-c2nc3ccc(Cl)cc3[nH]2)C(C)C)c(O[C@@H]2O[C@H](C(=O)N(C)CCS(=O)(=O)O)[C@@H](O)[C@H](O)[C@H]2O)c1)C(C)C [Compound 218]	2.8 nM	7 nM	0.07 nM
CC[C@H](C)[C@@H]([C@@H](CC(=O)N1CCC[C@H]1[C@H](OC)[C@@H](C)C(=O)N[C@H](C)[C@@H](O)c1ccccc1)OC)N(C)C(=O)[C@@H](NC(=O)[C@H](C(C)C)N(C)C(=O)OCc1ccc(NC(=O)[C@H](CCCNC(N)=O)NC(=O)[C@@H](NC(=O)[C@H](CCCO)NC(=O)CCOCCC(=O)NCCNc2ncc(-c3cc(C)cc(F)c3)c(N3CCC(N)CC3)c2-c2nc3cc(Cl)ccc3[nH]2)C(C)C)c(O[C@@H]2O[C@H](C(=O)NCC(=O)O)[C@@H](O)[C@H](O)[C@H]2O)c1)C(C)C [Compound 219]	2.7 nM	7.5 nM	0.099 nM
CC[C@H](C)[C@@H]([C@@H](CC(=O)N1CCC[C@H]1[C@H](OC)[C@@H](C)C(=O)N[C@H](C)[C@@H](O)c1ccccc1)OC)N(C)C(=O)[C@@H](NC(=O)[C@H](C(C)C)N(C)C(=O)OCc1ccc(NC(=O)[C@H](CCCNC(N)=O)NC(=O)[C@@H](NS(=O)(=O)C[C@H](C)NC(=O)CCOCCC(=O)NCCNc2ncc(-c3cc(C)cc(F)c3)c(N3CCC(N)CC3)c2-c2nc3ccc(Cl)cc3[nH]2)C(C)C)c(O[C@@H]2O[C@H](C(=O)N(C)CC(=O)O)[C@@H](O)[C@H](O)[C@H]2O)c1)C(C)C [Compound 220]	3.1 nM	7.6 nM	0.077 nM
CC[C@H](C)[C@@H]([C@@H](CC(=O)N1CCC[C@H]1[C@H](OC)[C@@H](C)C(=O)N[C@H](C)[C@@H](O)c1ccccc1)OC)N(C)C(=O)[C@@H](NC(=O)[C@H](C(C)C)N(C)C(=O)OCc1ccc(NC(=O)[C@H](C)NC(=O)[C@@H](NS(=O)(=O)C[C@H](C)NC(=O)CCOCCC(=O)NCCNc2ncc(-c3cc(C)cc(F)c3)c(N3CCC(N)CC3)c2-c2nc3ccc(Cl)cc3[nH]2)C(C)C)c(O[C@@H]2O[C@H](C(=O)N(C)CC(=O)O)[C@@H](O)[C@H](O)[C@H]2O)c1)C(C)C [Compound 221]	8.8 nM	27 nM	0.15 nM
CC[C@H](C)[C@@H]([C@@H](CC(=O)N1CCC[C@H]1[C@H](OC)[C@@H](C)C(=O)N[C@H](C)[C@@H](O)c1ccccc1)OC)N(C)C(=O)[C@@H](NC(=O)[C@H](C(C)C)N(C)C(=O)OCc1ccc(NC(=O)[C@H](CCCNC(N)=O)NC(=O)[C@@H](NC(=O)CCOCCC(=O)NCCNc2ncc(-c3cc(C)cc(F)c3)c(N3CCC(N)CC3)c2-c2nc3ccc(Cl)cc3[nH]2)C(C)C)c(O[C@@H]2O[C@H](C(=O)N3CCNCC3)[C@@H](O)[C@H](O)[C@H]2O)c1)C(C)C [Compound 222]	4.3 nM	1.9 nM	0.11 nM
CC[C@H](C)[C@@H]([C@@H](CC(=O)N1CCC[C@H]1[C@H](OC)[C@@H](C)C(=O)N[C@H](C)[C@@H](O)c1ccccc1)OC)N(C)C(=O)[C@@H](NC(=O)[C@H](C(C)C)N(C)C(=O)OCc1ccc(NC(=O)[C@H](CCCNC(N)=O)NC(=O)[C@@H](NC(=O)CCOCCC(=O)NCCNc2ncc(-c3cc(C)cc(F)c3)c(N3CCC(N)CC3)c2-c2nc3ccc(Cl)cc3[nH]2)C(C)C)c(O[C@@H]2O[C@H](C(=O)N3CCOCC3)[C@@H](O)[C@H](O)[C@H]2O)c1)C(C)C [Compound 223]	2.8 nM	9.2 nM	0.054 nM
CC[C@H](C)[C@@H]([C@@H](CC(=O)N1CCC[C@H]1[C@H](OC)[C@@H](C)C(=O)N[C@H](C)[C@@H](O)c1ccccc1)OC)N(C)C(=O)[C@@H](NC(=O)[C@H](C(C)C)N(C)C(=O)OCc1ccc(NC(=O)[C@H](CCCNC(N)=O)NC(=O)[C@@H](NC(=O)CCOCCC(=O)NCCNc2ncc(-c3cc(C)cc(F)c3)c(N3CCC(N)CC3)c2-c2nc3ccc(Cl)cc3[nH]2)C(C)C)c(O[C@@H]2O[C@H](C(=O)NCCNC(=O)CCC(=O)NS(=O)(=O)c3ccc4ccccc4c3)[C@@H](O)[C@H](O)[C@H]2O)c1)C(C)C [Compound 224]	3.2 nM	27 nM	0.068 nM
CC[C@H](C)[C@@H]([C@@H](CC(=O)N1CCC[C@H]1[C@H](OC)[C@@H](C)C(=O)N[C@H](C)[C@@H](O)c1ccccc1)OC)N(C)C(=O)[C@@H](NC(=O)[C@H](C(C)C)N(C)C(=O)OCc1ccc(NC(=O)[C@H](CCCNC(N)=O)NC(=O)[C@@H](NC(=O)CCOCCC(=O)NCCNc2ncc(-c3cc(C)cc(F)c3)c(N3CCC(N)CC3)c2-c2nc3ccc(Cl)cc3[nH]2)C(C)C)c(O[C@@H]2O[C@H](C(=O)NCCCCCNC(=O)CCCCc3ccc(I)cc3)[C@@H](O)[C@H](O)[C@H]2O)c1)C(C)C [Compound 225]	1.9 nM	18 nM	0.26 nM
